Results taken from PubChem BioAssay AID504661 (Broad Institute, 2011).
Active and inactive are the calls of the source. The rule behind the calls is not given here.

System: P. falciparum 3D7 ACP-GFP apicoplast imaging, 4 days
Experiment: apicoplast disruption in P. falciparum parasites, late-stage follow-up, mechanism study for antimalarial project, imaging, 3D7 ACP-GFP strain (AID 504661)
Settings: stronger effect = higher value

For `C[C@@H]1CN([C@@H](C)COC(=O)C(C)(C)C)C(=O)c2cc(NC(=O)Nc3ccccc3)ccc2O[C@@H](C)CCCCO[C@H]1CN(C)S(=O)(=O)c1ccc(F)cc1`, the apicoplast disruption (at 16 nM) was 17.2% (inactive).

`COCCOC(=O)N(C)C[C@@H]1OCCCC[C@H](C)Oc2ccc(NC(=O)Nc3ccccc3)cc2C(=O)N([C@@H](C)CO)C[C@H]1C` was tested, and the apicoplast disruption (at 50000 nM) was 13.7% (inactive).

`COc1ccc(COC[C@H](C)N2C[C@@H](C)[C@H](CN(C)S(=O)(=O)c3ccc(F)cc3)OCCCC[C@H](C)Oc3ccc(NC(=O)Nc4ccccc4)cc3C2=O)cc1` was tested, and the apicoplast disruption (at 3.2 nM) was 16.1% (inactive).

`Cc1noc(C)c1NC(=O)Nc1ccc2c(c1)C(=O)N([C@@H](C)CO)C[C@@H](C)[C@H](CN(C)S(=O)(=O)c1ccc(F)cc1)OCCCC[C@H](C)O2` was tested, and the apicoplast disruption (at 2000 nM) was 21% (inactive).
